Results on 18 compounds are retold here after US20210024483A1, “HETEROCYLCOALKENYL DERIVATIVES USEFUL AS AGONISTS OF THE GPR120 AND / OR GPR40” (Janssen Pharmaceutica NV, priority 2018, published 2021).

Each structure is given as a SMILES string.

By EC50 is commonly meant the concentration needed to bring the measured effect to its halfway point.

Assay type in all cases: cell-based
The target in assay [1] is T1, Human GPR120 short form (short splice variant, NM_001195755.1) (Homo sapiens, UniProt Q5NUL3).
T1 construct: expressed in transfected cells; host or cells: HEK293
T1 sequence (Q5NUL3 1-361): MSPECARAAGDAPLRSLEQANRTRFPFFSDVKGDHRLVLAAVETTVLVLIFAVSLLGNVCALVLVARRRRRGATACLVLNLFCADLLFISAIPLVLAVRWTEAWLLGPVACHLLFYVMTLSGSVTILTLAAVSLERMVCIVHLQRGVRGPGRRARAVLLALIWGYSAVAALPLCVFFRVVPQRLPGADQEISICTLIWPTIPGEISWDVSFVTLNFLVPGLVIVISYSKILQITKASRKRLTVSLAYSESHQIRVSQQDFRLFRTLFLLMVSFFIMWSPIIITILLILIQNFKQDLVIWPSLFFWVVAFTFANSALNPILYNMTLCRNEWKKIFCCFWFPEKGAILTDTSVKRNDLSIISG
Nature of the assay: Human GPR120 Calcium Flux Assay. As to conditions: HEK-293 cells, 4200 cells/well, read-out: Human GPR120 Calcium Flux Assay Procedure B EC50. From the text:
In Vitro Assay: Human GPR120 in Calcium Flux Assay
This in vitro assay serves to assess test compound agonist activity against the short splice variant (SVS with Accession number NM_001195755.1 confirmed by sequencing data) of the GPR120 receptor. The Human Short splice variant #2 (NM_001195755.1) is missing an in-frame coding exon compared to variant 1 (the Human Long splice variant NM_181745.3), resulting in a shorter isoform (GPR120-S) lacking a 16 aa protein segment compared to isoform GPR120-L. The assay platform utilizes HEK-293 cells stably transfected to express the Human GPR120 short form. These cells are first loaded with the Ca^+2 sensitive dye, Fluo-4 NW. Upon stimulation, intracellular released Ca^+2 can bind to the dye and alter its fluorescence intensity. This increase in fluorescence signal, and thus the flux in intracellular [Ca^2+], is detected and quantitated by fluorescence imaging using a FLIPR reader. The effect of the agonist is measured as a function of concentration and used to calculate an EC50 based upon a response curve. […]
In this procedure 4200 cells/well were employed.
A Human GPR120 clone (Genbank accession number NM_001195755.1) was placed into the pcDNA3.1 mammalian expression vector carrying the neomycin resistance gene. A stable mammalian cell was generated by placing the above clone into a HEK293 background. Clonal cells responding to long chain fatty acids had expression levels of GPR120 confirmed by RT-qPCR. Human HEK-GPR120 cells were cultured in Dulbecco's Modified Eagle's Medium (DMEM)/F12 medium supplemented with 10% fetal bovine serum (FBS), 1% L-Glutamine and 1% penicillin/streptomycin and 0.5 mg/ml G-418. Cells were split 2 times a week to keep the cells in the log-phase growth.
In preparation for the assay, HEK cells stably transfected with Human GPR120 (2.5K cells per well in 25 uL growth medium) were seeded into 384-well plates and then incubated overnight (37° C., 5% CO2). The next day, the media was changed to 20 μL assay buffer and the cell starved for 1 h at 37° C. The dye loading solution (2× dye) was prepared using 10 mL assay buffer, 100 μL of 250 mM probenecid, 1 bottle of Component A, and 20 μl of dye in DMSO. Twenty μL of the 2× dye loading buffer was then added to each well. The plates were incubated at 37° C. for 30 min, then at room temperature for an additional 15 minutes, before performing the assay on FLIPR.
The assay was performed on a FLIPR plate reader using the following parameters. Baseline was read for 10 seconds at 1 sec intervals. The program was set to transfer 10 μL of ligand from compound plate to cell plate after baseline reading. Aspiration was executed at: 10 μL/sec speed, 4.6 μL height; Dispensing was executed at: 30 μL/sec speed, 45 μL height. After compound addition, each well was read for 300 sec, with measurements collected at 1 sec intervals.
The kinetic data from the FLIPR was based upon a 5 minute window for data collection. The fluorescence of each sample well was used for individual calculations of a normalized RFU value, which was defined as maximum response minus the minimum response. The normalized fluorescence reading (RFU) was calculated as follows:
The data were fitted to a sigmoidal dose-response curve with a variable Hill slope (<2) using nonlinear regression with GraphPad Prism 5.0 to calculate the EC50 values. The Fitting Equation was: Y=Bottom+(Top−Bottom)/(1+10^((Log EC50−X)*HillSlope)), where X is the log of the concentration and Y is the response.
Background: Calcium assays in cells follow changes in intracellular calcium, usually with a dye or a luminescent sensor.

For assay [2], the target named is T2, short form of the GPR120 receptor (Homo sapiens, UniProt Q5NUL3).
T2 construct: host or cells: PathHunter CHO-K1 GPR120S beta-Arrestin Cell Line
T2 sequence (Q5NUL3 1-361): T1 sequence (Q5NUL3 1-361)
Nature of the assay: Human GPR120 DiscoveRx PathHunter Beta-Arrestin Assay, Procedure B. Conditions: PathHunter CHO-K1 GPR120S cells, 5000 cells/well. The source says: Human GPR120 DiscoveRx PathHunter® Beta-Arrestin Assay
The binding of an agonist (medium/long chain fatty acids or small molecule agonists) to the G-protein-coupled receptor GPR120 activates phospholipase C, leading to release of intracellular Ca^+2 through the generation of inositol 1,4,5-trisphosphate (InsP3 or IP3). GPR120 activation can also trigger intracellular signaling via recruitment of Beta-Arrestin. In the present method, agonist-induced activation of the human GPR120 receptor is monitored through the use of PathHunter® CHO-K1 GPR120 Beta-Arrestin Cell Line engineered by DiscoveRx, as detailed below. The cell lines were designed to co-express both the ProLink/Enzyme Donor (PK)-tagged GPCR and the Enzyme […] (EA)-tagged Beta-Arrestin fusion proteins. Upon GPR120 receptor stimulation/activation, the EA-tagged Beta-Arrestin portion is translocated to the tagged receptor, where the two enzyme fragments are brought within close proximity. Under these conditions, these fragments can interact and form an active Beta-gal enzyme complex through Enzyme Fragment Complementation (EFC). This active Beta-gal complex can enzymatically hydrolyse the substrate to produce a detectable light signal; therefore, activation as a function of agonist concentration can be expressed as an EC50 value to determine relative compound activities. This in vitro assay therefore serves to assess compound agonist activity of the GPR120.
In Procedure β-arrestin B the cells used were PathHunter® CHO-K1 GPR120S β-Arrestin Cell Line, expressing the short form of the GPR120 receptor (Accession #[…]), with 5000 cells/well.
The selected CHO-K1 GPR120 β-Arrestin cells were cultured in Ham's F12 media supplemented with 10% fetal bovine serum (FBS), 1% Glutamine, 1× p/s, 800 μg/mL G418 and 300 μg/mL Hygromycin B (for selection). Cell stocks were maintained and grown in a sub-confluent state using standard cell culture procedures. The day before the experiment, the cells were harvested with non-enzymatic cell dissociation buffer and re-suspended in complete growth media at the desired concentration. A Corning 384-plate was then seeded with the proper number of cells in a volume of 25 μL, per well. The seeded plates were incubated overnight at 37° C.
On the day of the experiment, the Assay Buffer containing (a) HBSS with Ca^++ and Mg^++, (b) 20 mM HEPES, and (c) 0.1% BSA stabilizer (pH 7.4) was prepared. The growth medium was gently removed from the cell plates and 20 μL of Assay Buffer added to each well. The plate was then incubated at 37° C. for 60 min. Test compounds were serially diluted in Assay Buffer to desired concentrations (more particularly to one or more of the following μM concentrations: 25, 12.5, 6.25, 3.12, 1.56, 0.78, 0.39, 0.19, 0.10, 0.05, 0.02, 0.01). Five μL of compound dilution was then added to each well and the plate incubated at 37° C. for 90 min. The detection reagents were prepared according to the manufacture's instruction. Twelve μL of the detection reagents were added to each well and the plate incubated at room temperature for 60 min.
The plates were read on an EnVision instrument, using Protocol name: Luminescence, Plate type: 384 Costar, Measurement height: 3 mm, Measurement time: 1 s, Aperture: 384 Plate aperture. The % Activity relative to the positive control was calculated using the following equation:
The % Activity values were plotted versus the concentration of test compound and fitted to a sigmoidal dose-response curve with a Hill slope=1 (fixed value) using nonlinear regression with GraphPad Prism 5.0 to calculate the EC50 values. The Fitting Equation was: Y=Bottom+(Top−Bottom)/(1+10^((Log EC50−X)*HillSlope)), where X is the log of the concentration and Y is the response.

In a further assay the target is GPR40 (UniProt O14842). Nature of the assay: GPR40 Calcium Flux Assay. Conditions: transfected HEK293 cells stably expressing human or rat GPR40; species not given. How it is done:
Biological Example 3: In Vitro Assay
Compounds were tested in a calcium flux assay using transfected HEK293 cells stably expressing either human GPR40 or rat GPR40. Human GPR40 expressing cells were cultured in DMEM-High Glucose media supplemented with 10% fetal bovine serum, 1×L-Glutamine, 1× Penicillin/Streptomycin and 500 μg/mL G418. Rat GPR40 expressing cells were cultured in DMEM-High Glucose media supplemented with 10% fetal bovine serum and 1 μg/mL puromycin. Cells were plated into poly-D-lysine coated 384-well plates and cultured overnight in a 37° C. humidified tissue culture incubator under 5% CO2/90% O2 atmosphere.
On the day of the experiment, the culture media was replaced with assay buffer (HBSS, 20 mM HEPES, 0.1% BSA) and the cells incubated at 37° C. for 1 h. Calcium-sensitive fluorescent dye (Fluo 8 No-Wash Calcium Dye, ABD Bioquest) was then added and the cells incubated for another 30 min at 37° C. followed by 15 min at room temperature while protected from the light. The cell plate and a plate of diluted compounds of Formula (I) were loaded into a fluorescent plate reader that added compounds onto the cells while measuring the fluorescence intensity of each well. The plate reader recorded fluorescence intensity at 1 second intervals for 8 min and provided the data for analysis in an Excel format. EC50 values were calculated using Prism (GraphPad) software.

For `COc1ccc(C2=C(COc3ccc(CCC(=O)O)c(C)c3C)COCC2)cc1` [compound 647], the EC50 in assay [1] was more than 5000 nM; in assay [2], 740 nM.
In the same order, the values of `Cc1cc(CCC(=O)O)ccc1OCC1=C(c2ccc(Cl)cc2)COCC1` [compound 753] are 178 nM and 296 nM.
The matching figures for `Cc1cc(CCC(=O)O)ccc1OCC1=C(c2ccc(Cl)cc2)CCOC1` [compound 645]: 269 nM and 275 nM.
In the same order, the values of `Cc1cc(CCC(=O)O)ccc1OCC1=C(c2ccc(F)cc2)CSC1` [compound 625] are 124 nM and 110 nM.
Take `Cc1c(CCC(=O)O)ccc(OCC2=C(c3ccc(F)cc3)CCOC2)c1C` [compound 650]: the EC50 stood at 316 nM in assay [1] and 658 nM in assay [2].
In the same order, the values of `O=C(O)CCc1ccc(OCC2=C(c3ccc(Cl)cc3)CCOC2)cc1C(F)(F)F` [compound 646] are 628 nM and 3650 nM.
In the same order, the values of `Cc1c(CCC(=O)O)ccc(OCC2=C(c3ccc(F)c(F)c3)CCOC2)c1C` [compound 658] are 142 nM and 169 nM.
Turning to `O=C(O)CCc1ccc(OCC2=C(Cc3ccc(Cl)cc3)CCOC2)cc1` [compound 695], the 50% effective concentration (EC50) at GPR40 is 3190 nM; in assay [1] it was more than 5000 nM.
In the same order, the values of `O=C(O)CCc1ccc(OCC2=C(c3ccc(OC(F)(F)F)cc3)CCOC2)cc1C(F)(F)F` [compound 686] are 740 nM and more than 5000 nM.
On to `Cc1ccc(C2=C(COc3ccc(CCC(=O)O)cc3)CCOC2)cc1F` [compound 769], for which the half-maximal effective concentration (EC50) is more than 10000 nM on GPR40 and 1090 nM in assay [1].
The matching figures for `Cc1ccc(C2=C(COc3ccc(CCC(=O)O)cc3)CCOCC2)cc1F` [compound 783]: 7880 nM and 1360 nM.
As to `O=C(O)CCc1ccc(OCC2=C(Cc3ccccc3)CCOC2)cc1` [compound 688], the half-maximal effective concentration (EC50) at GPR40 is 3250 nM; in assay [1], 2940 nM.
In the same order, the values of `O=C(O)CCc1ccc(OCC2=C(C3CCCC3)CCOC2)cc1` [compound 738] are 2680 nM and 927 nM.
The matching figures for `COc1ccc(CC2=C(COc3ccc(CCC(=O)O)c(C(F)(F)F)c3)COCC2)cc1` [compound 698]: 335 nM and more than 5000 nM.
In the same order, the values of `O=C(O)CCc1cc(F)c(OCC2=C(Cc3ccc(Cl)cc3)CCOC2)c(F)c1` [compound 721] are more than 10000 nM and 2420 nM.
Take `Cc1c(CCC(=O)O)ccc(OCC2=C(c3ccc(Cl)cc3)CCOC2)c1C` [compound 641]: the EC50 was 172 nM in assay [1] and 204 nM in assay [2].
As for `O=C(O)CCc1cc(F)c(OCC2=C(Cc3ccccc3)CCOC2)c(F)c1` [compound 714], the EC50 is more than 10000 nM on GPR40 and 1930 nM in assay [1].
As for `O=C(O)CCc1cc(F)c(OCC2=C(c3ccc(Cl)cc3)CCOC2)c(F)c1` [compound 642], the figures for the concentration giving a half-maximal response (EC50) in assay [1] and in assay [2] were 176 nM and 623 nM, respectively.
